Literature values as cited in patent US9309233B2, “Compositions and methods for the treatment of blood clotting disorders” (CELLIX BIO PRIVATE LIMITED, priority 2012, dated 2016).

time at which plasma levels peak (plasma levels of dabigatran after drug administration (dabigatran etexilate))	oral bioavailability (oral)	SMILES
≈ 2 hours		[H]/N=C(/N)c1ccc(NCc2nc3cc(C(=O)N(CCC(=O)O)c4ccccn4)ccc3n2C)cc1 [dabigatran]
	≈ 6%	CCCCCCOC(=O)NC(=N)c1ccc(NCc2nc3cc(C(=O)N(CCC(=O)OCC)c4ccccn4)ccc3n2C)cc1 [Dabigatran etexilate]
